Data: patent US10526309B2, “Pan-TAM inhibitors and Mer/Axl dual inhibitors” (The University of North Carolina at Chapel Hill, priority 2015, dated 2020)
Where two headings read alike, the source gives them in different places.

Tests used:
Format in all cases: biochemical
Tyro3 = biological target: T1, Tyro3 (Homo sapiens, UniProt Q06418); experiment: Tyro3 kinase inhibition IC50
T1 sequence (Q06418 41-890): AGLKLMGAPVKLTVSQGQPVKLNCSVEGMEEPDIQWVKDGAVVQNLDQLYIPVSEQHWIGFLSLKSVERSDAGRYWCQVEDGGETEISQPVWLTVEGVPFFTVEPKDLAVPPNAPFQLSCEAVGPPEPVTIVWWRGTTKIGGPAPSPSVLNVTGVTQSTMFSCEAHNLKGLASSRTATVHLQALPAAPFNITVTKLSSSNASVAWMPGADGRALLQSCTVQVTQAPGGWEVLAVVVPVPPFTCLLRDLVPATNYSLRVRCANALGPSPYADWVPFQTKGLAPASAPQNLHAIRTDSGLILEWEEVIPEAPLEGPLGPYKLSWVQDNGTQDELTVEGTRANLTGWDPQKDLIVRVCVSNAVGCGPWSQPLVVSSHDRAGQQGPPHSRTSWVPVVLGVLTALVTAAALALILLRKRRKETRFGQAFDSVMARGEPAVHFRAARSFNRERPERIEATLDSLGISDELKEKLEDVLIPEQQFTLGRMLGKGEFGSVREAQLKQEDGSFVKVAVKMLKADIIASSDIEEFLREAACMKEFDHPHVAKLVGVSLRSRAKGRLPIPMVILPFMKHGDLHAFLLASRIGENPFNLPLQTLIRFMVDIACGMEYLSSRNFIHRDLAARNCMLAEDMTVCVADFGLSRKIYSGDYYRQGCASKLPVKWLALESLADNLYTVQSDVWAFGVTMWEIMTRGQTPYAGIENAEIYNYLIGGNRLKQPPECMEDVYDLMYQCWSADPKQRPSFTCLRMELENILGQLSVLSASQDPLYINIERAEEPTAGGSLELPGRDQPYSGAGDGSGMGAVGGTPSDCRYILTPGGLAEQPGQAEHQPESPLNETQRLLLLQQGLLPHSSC

Axl = biological target: T2, Axl (Homo sapiens, UniProt P30530); experiment: Axl kinase inhibition IC50
T2 sequence (P30530 26-894): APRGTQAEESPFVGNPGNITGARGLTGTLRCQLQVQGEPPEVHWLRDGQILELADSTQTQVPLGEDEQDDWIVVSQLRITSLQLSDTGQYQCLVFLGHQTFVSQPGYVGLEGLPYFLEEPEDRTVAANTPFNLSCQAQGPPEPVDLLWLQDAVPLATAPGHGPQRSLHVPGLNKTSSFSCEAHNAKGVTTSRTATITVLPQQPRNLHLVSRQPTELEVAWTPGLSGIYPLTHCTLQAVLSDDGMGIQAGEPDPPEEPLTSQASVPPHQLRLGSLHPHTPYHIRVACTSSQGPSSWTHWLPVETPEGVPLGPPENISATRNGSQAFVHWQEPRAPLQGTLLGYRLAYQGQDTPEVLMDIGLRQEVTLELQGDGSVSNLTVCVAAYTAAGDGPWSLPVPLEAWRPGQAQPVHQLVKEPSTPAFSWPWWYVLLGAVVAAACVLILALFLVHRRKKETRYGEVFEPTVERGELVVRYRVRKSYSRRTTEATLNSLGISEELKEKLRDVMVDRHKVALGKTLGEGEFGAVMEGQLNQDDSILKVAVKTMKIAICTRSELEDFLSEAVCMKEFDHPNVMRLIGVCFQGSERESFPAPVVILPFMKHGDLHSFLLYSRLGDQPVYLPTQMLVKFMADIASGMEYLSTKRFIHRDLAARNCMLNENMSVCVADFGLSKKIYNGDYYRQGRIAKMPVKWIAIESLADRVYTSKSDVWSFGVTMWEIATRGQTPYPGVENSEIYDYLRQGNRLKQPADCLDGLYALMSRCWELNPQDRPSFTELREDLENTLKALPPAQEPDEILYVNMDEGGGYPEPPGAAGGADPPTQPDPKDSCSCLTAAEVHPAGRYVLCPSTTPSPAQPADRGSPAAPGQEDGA

Mer = biological target: T3, Mer (Homo sapiens, UniProt Q12866); experiment: Mer kinase inhibition IC50; details: read-out: Mer IC50
T3 sequence (Q12866 21-999): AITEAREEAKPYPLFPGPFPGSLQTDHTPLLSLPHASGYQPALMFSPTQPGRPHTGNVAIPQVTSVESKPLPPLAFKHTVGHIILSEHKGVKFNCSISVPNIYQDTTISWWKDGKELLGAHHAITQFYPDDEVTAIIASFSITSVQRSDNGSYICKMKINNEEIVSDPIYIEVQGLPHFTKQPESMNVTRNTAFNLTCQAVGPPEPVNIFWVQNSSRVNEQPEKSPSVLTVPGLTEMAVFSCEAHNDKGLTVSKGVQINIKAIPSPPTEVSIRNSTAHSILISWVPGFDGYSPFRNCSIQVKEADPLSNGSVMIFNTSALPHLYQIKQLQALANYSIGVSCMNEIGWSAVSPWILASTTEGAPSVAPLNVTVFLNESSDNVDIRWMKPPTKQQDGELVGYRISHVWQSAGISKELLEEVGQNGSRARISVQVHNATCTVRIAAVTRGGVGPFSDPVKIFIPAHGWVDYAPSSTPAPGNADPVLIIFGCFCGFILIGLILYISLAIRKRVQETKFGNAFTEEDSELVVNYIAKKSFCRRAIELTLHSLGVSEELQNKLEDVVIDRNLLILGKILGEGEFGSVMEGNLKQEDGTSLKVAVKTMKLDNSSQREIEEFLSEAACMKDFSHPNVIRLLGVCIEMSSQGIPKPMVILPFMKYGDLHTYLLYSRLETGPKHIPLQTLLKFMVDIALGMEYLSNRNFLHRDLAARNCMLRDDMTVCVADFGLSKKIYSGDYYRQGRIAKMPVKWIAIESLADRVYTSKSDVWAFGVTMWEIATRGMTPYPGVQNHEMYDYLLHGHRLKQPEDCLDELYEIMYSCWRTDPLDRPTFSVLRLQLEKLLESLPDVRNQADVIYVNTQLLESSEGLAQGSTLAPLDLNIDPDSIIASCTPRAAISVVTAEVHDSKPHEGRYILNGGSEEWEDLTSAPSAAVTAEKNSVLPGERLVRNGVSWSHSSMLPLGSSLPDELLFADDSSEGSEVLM

CN1CCN(Cc2ccc(-c3cnc(Nc4ccc(C#Cc5cc(NC(=O)C6CC6)ccn5)cc4)nc3N[C@H]3CC[C@H](O)CC3)cc2)CC1 [UNC3622A]
IC50 (Tyro3; Table 3, read-out: Tyro3 IC50): < 10 nM
IC50 (Axl; Table 3): < 10 nM
IC50 (Mer; Table 3): < 10 nM

O[C@H]1CC[C@H](Nc2nc(Nc3ccc(C#Cc4cc(-c5cncnc5)ccn4)cc3)ncc2-c2ccccn2)CC1 [UNC4362A]
IC50 (Tyro3; Table 4, read-out: Tryo3 IC50): 100 to 1000 nM
IC50 (Axl; Table 4): 100 to 1000 nM
IC50 (Mer; Table 4): 10 to 100 nM

COc1cccc(Oc2ccnc(C#Cc3ccc(Nc4ncc(-c5ccccn5)c(N[C@H]5CC[C@H](O)CC5)n4)cc3)c2)c1 [UNC4393A]
IC50 (Tyro3; Table 5, read-out: Tryo3 IC50): 1000 to 30000 nM
IC50 (Axl; Table 5): 1000 to 30000 nM
IC50 (Mer; Table 5): 1000 to 30000 nM

CC(C)C(=O)Nc1ccnc(C#Cc2ccc(Nc3ncc(-c4ccc(CN5CCN(C)CC5)cc4)c(N[C@H]4CC[C@H](O)CC4)n3)cc2)c1 [UNC3870A]
IC50 (Tyro3; Table 3, read-out: Tyro3 IC50): < 10 nM
IC50 (Axl; Table 3): < 10 nM
IC50 (Mer; Table 3): < 10 nM

Cc1cc(Nc2ncc(-c3ccc(CN4CCN(C)CC4)cc3)c(N[C@H]3CC[C@H](O)CC3)n2)ccc1C#Cc1cc(NC(=O)C(C)C)ccn1 [UNC4044A]
IC50 (Tyro3; Table 3, read-out: Tyro3 IC50): < 10 nM
IC50 (Axl; Table 3): < 10 nM
IC50 (Mer; Table 3): < 10 nM

O[C@H]1CC[C@H](Nc2nc(Nc3ccc(C4=CCCN(C5CCC5)C4)cc3)ncc2-c2ccccn2)CC1 [UNC5070A]
IC50 (Tyro3; Table 2, read-out: Tyro3 IC50): 100 to 1000 nM
IC50 (Axl; Table 2): 1000 to 30000 nM
IC50 (Mer; Table 2): 100 to 1000 nM

O[C@H]1CC[C@H](Nc2nc(Nc3ccc(C4CCNCC4)cc3)ncc2-c2ccccn2)CC1 [UNC5128A]
IC50 (Tyro3; Table 2, read-out: Tyro3 IC50): 100 to 1000 nM
IC50 (Axl; Table 2): 1000 to 30000 nM
IC50 (Mer; Table 2): 100 to 1000 nM

CC(C)C(=O)Nc1ccnc(C#Cc2ccc(Nc3ncc(-c4ccccn4)c(N[C@H]4CC[C@H](O)CC4)n3)cc2)c1 [UNC4042A]
IC50 (Tyro3; Table 3, read-out: Tyro3 IC50): < 10 nM
IC50 (Axl; Table 3): < 10 nM
IC50 (Mer; Table 3): < 10 nM

O[C@H]1CC[C@H](Nc2nc(Nc3ccc(C4CCCNC4)cc3)ncc2-c2ccccn2)CC1 (stereo partly drawn) [UNC5129A]
IC50 (Tyro3; Table 2, read-out: Tyro3 IC50): 100 to 1000 nM
IC50 (Axl; Table 2): 100 to 1000 nM
IC50 (Mer; Table 2): 100 to 1000 nM

CN1CCCC(c2ccc(Nc3ncc(-c4ccccn4)c(N[C@H]4CC[C@H](O)CC4)n3)cc2)C1 (stereo partly drawn) [UNC5131A]
IC50 (Tyro3; Table 2, read-out: Tyro3 IC50): 100 to 1000 nM
IC50 (Axl; Table 2): 100 to 1000 nM
IC50 (Mer; Table 2): 10 to 100 nM

O[C@H]1CC[C@H](Nc2nc(Nc3ccc(C#Cc4cc(Nc5ncco5)ccn4)cc3)ncc2-c2ccccn2)CC1 [UNC4392A]
IC50 (Tyro3; Table 4, read-out: Tryo3 IC50): 100 to 1000 nM
IC50 (Axl; Table 4): 1000 to 30000 nM
IC50 (Mer; Table 4): 100 to 1000 nM

O[C@H]1CC[C@H](Nc2nc(Nc3ccc(C#Cc4cc(-c5cccnc5)ccn4)cc3)ncc2-c2ccccn2)CC1 [UNC4361A]
IC50 (Tyro3; Table 4, read-out: Tryo3 IC50): 100 to 1000 nM
IC50 (Axl; Table 4): 100 to 1000 nM
IC50 (Mer; Table 4): 100 to 1000 nM

CC(=O)Nc1ccnc(C#Cc2ccc(Nc3ncc(-c4ccc(CN5CCN(C)CC5)cc4)c(N[C@H]4CC[C@H](O)CC4)n3)cc2)c1 [UNC3874A]
IC50 (Tyro3; Table 3, read-out: Tyro3 IC50): 10 to 100 nM
IC50 (Axl; Table 3): 100 to 1000 nM
IC50 (Mer; Table 3): 10 to 100 nM

NS(=O)(=O)c1ccc(-c2cnc(Nc3ccc(C#Cc4cc(C(=O)NC5CC5)ccn4)cc3)nc2N[C@H]2CC[C@H](O)CC2)nc1 [UNC3457A]
IC50 (Tyro3; Table 3, read-out: Tyro3 IC50): 100 to 1000 nM
IC50 (Axl; Table 3): 10 to 100 nM
IC50 (Mer; Table 3): 10 to 100 nM

CN1CCN(Cc2ccc(-c3cnc(Nc4ccc(C#Cc5cc(N)ccn5)cc4)nc3N[C@H]3CC[C@H](O)CC3)cc2)CC1 [UNC3869A]
IC50 (Tyro3; Table 3, read-out: Tyro3 IC50): 100 to 1000 nM
IC50 (Axl; Table 3): 1000 to 30000 nM
IC50 (Mer; Table 3): 10 to 100 nM

CN1CCC(c2ccc(Nc3ncc(-c4ccccn4)c(NC4CCOCC4)n3)cc2)CC1 [UNC5134A]
IC50 (Tyro3; Table 2, read-out: Tyro3 IC50): 100 to 1000 nM
IC50 (Axl; Table 2): 1000 to 30000 nM
IC50 (Mer; Table 2): 100 to 1000 nM

CC(C)Oc1ccnc(C#Cc2ccc(Nc3ncc(-c4ccccn4)c(N[C@H]4CC[C@H](O)CC4)n3)cc2)c1 [UNC4394A]
IC50 (Tyro3; Table 5, read-out: Tryo3 IC50): 100 to 1000 nM
IC50 (Axl; Table 5): 100 to 1000 nM
IC50 (Mer; Table 5): 100 to 1000 nM

CC(C)C(=O)Nc1ccnc(C#Cc2ccc(Nc3ncc(-c4ccncc4)c(N[C@H]4CC[C@H](O)CC4)n3)cc2)c1 [UNC4043A]
IC50 (Tyro3; Table 3, read-out: Tyro3 IC50): < 10 nM
IC50 (Axl; Table 3): 10 to 100 nM
IC50 (Mer; Table 3): < 10 nM

CC(C)C(=O)Nc1ccnc(C#Cc2ccc(Nc3ncc(-c4ccc(CN5CCN(C)CC5)cc4)c(N[C@H]4CC[C@H](O)CC4)n3)cc2F)c1 [UNC4045A]
IC50 (Tyro3; Table 3, read-out: Tyro3 IC50): < 10 nM
IC50 (Axl; Table 3): < 10 nM
IC50 (Mer; Table 3): < 10 nM

CC(C)C(=O)Nc1ccnc(C#Cc2ccc(Nc3ncc(-c4ccccc4)c(N[C@H]4CC[C@H](O)CC4)n3)cc2)c1 [UNC4041A]
IC50 (Tyro3; Table 3, read-out: Tyro3 IC50): 10 to 100 nM
IC50 (Axl; Table 3): 100 to 1000 nM
IC50 (Mer; Table 3): 10 to 100 nM

Cc1cc(C#Cc2cc(NC(=O)C(C)C)ccn2)ccc1Nc1ncc(-c2ccc(CN3CCN(C)CC3)cc2)c(N[C@H]2CC[C@H](O)CC2)n1 [UNC4048A]
IC50 (Tyro3; Table 3, read-out: Tyro3 IC50): 10 to 100 nM
IC50 (Axl; Table 3): 100 to 1000 nM
IC50 (Mer; Table 3): 10 to 100 nM

O[C@H]1CC[C@H](Nc2nc(Nc3ccc(C4=CCCNC4)cc3)ncc2-c2ccccn2)CC1 [UNC5113A]
IC50 (Tyro3; Table 2, read-out: Tyro3 IC50): 100 to 1000 nM
IC50 (Axl; Table 2): 100 to 1000 nM
IC50 (Mer; Table 2): 10 to 100 nM

O[C@H]1CC[C@H](Nc2nc(Nc3ccc(C#Cc4cc(-c5ncc[nH]5)ccn4)cc3)ncc2-c2ccccn2)CC1 [UNC4357A]
IC50 (Tyro3; Table 4, read-out: Tryo3 IC50): 100 to 1000 nM
IC50 (Axl; Table 4): 1000 to 30000 nM
IC50 (Mer; Table 4): 100 to 1000 nM

O[C@H]1CC[C@H](Nc2nc(Nc3ccc(-c4cccnc4)cc3)ncc2-c2ccccn2)CC1 [UNC4435A]
IC50 (Tyro3; Table 2, read-out: Tyro3 IC50): 100 to 1000 nM
IC50 (Axl; Table 2): 1000 to 30000 nM
IC50 (Mer; Table 2): 100 to 1000 nM
